Here are results for 40 compounds from ChEMBL document CHEMBL3507680, “University of Dundee, Gates Library screen for HepG2 cell viability”.

The nature of the data set: Human HepG2 cell viability assay in 384 well format. Format: toxicity, cell-based. Details: dose 125 nL, time 70.5 hour; cytotoxicity at 70.5 h: concentration not given beside the values. Particulars: HepG2 cells, read-out: Inhibition.

Regarding `O=C(CO)N1CCC(c2ccnc(Nc3cc(C(F)(F)F)ccn3)n2)C1` (stereo not given), the cytotoxicity at 70.5 h is -3.68%.
As to `CCc1nnc(Nc2cc(C)nc(C3CCN(c4cnccn4)C3)n2)s1` (stereo not given), the cytotoxicity at 70.5 h was -15.3%.
With `CC(=O)N[C@@H]1CN(S(=O)(=O)c2ccc(Cl)cc2)C[C@H]1O` the figure was -7.41%.
Next, `Cc1cc(Nc2ncccn2)nc(C2CCCN(CCO)C2)n1` (stereo not given): -9.85%; `O=C1CCC[C@]2(CN(S(=O)(=O)N3CCCCC3)C[C@H]2c2cccnc2)N1`: -6.21%; `CCCC(=O)N1CCCC(c2cc3cccnc3c(O)n2)C1` (stereo not given): -13.1%.
With `Cn1ccc(C(=O)N2CCCC(c3cc4cccnc4c(O)n3)C2)n1` (stereo not given) the figure was -9.08%; with `FC(F)(F)c1cc(C2CCNCC2)nc(-c2ccsc2)n1`, -11.8%; with `CN1CCN(c2nc(O)cc(Cc3ccccc3F)n2)CC1`, -4.68%.
For `CCN1CCN(c2nc(O)cc(Cc3ccccc3F)n2)CC1`, the cytotoxicity at 70.5 h was -0.665%.
Next, `CC1(c2cc[nH]n2)CCN(C(=O)c2ccc(Cl)cc2)CC1`: -4.57%; `NC(=O)C1(Cc2ccc(-c3ccccc3)cc2)CCCNC1` (stereo not given): -1.37%; `CN1CCC(c2cncc(C(=O)NCc3ccc(F)cc3)n2)CC1`: -5.99%.
With `Oc1cc(CC2COCCN(CC3(O)CCOCC3)C2)ncn1` (stereo not given) the figure was 23%; with `CC(C)CCNC(=O)C1CCCN1C(=O)Nc1cccc(F)c1` (stereo not given), -6.59%; with `COCCNc1nnc(-c2cnc(C)cn2)s1`, -3.71%.
With `c1cc(-c2cnc(NC3CC3)nc2[C@@H]2CCCO2)ccn1` the figure was -8.62%; with `CC(C)Nc1ncc(-c2ccncc2)c([C@@H]2CCCO2)n1`, -8.69%.
Take `CC(=O)N1CCOC(c2c(C(=O)O)sc3ccccc23)C1` (stereo not given): the cytotoxicity at 70.5 h was -7.22%.
With `COc1ccccc1C1CNCCN1C(=O)c1ccc(F)cc1` (stereo not given) the figure was 0.353%; with `Cc1nc(C(=O)NCc2ccccn2)cc(C2CCCN2)n1` (stereo not given), 20.2%.
Consider `CNC(=O)c1cccc(CC2COCCN(Cc3ccc(C)o3)C2)n1` (stereo not given), for which the cytotoxicity at 70.5 h was -2.79%.
Next, `NC(=O)c1ccccc1Oc1cccc(C2CCCNC2)n1` (stereo not given): -4.29%; `CC(C)CN1CCCC1c1cc[nH]n1` (stereo not given): -1.98%; `CCC(=O)N1CCN(C)C(=O)C(Cc2ccccc2-c2cccs2)C1` (stereo not given): -1.38%.
With `COCCN1CCC(c2ncc(C(=O)N3CCOCC3)c(C)n2)CC1` the figure was -1.72%; with `CC(C)(C)n1nnnc1CN(CCc1ccccc1)Cc1ccccc1`, 1.44%; with `Cc1nnsc1C(=O)N1CCCCC1c1cc2nc(C)c(C)c(O)n2n1` (stereo not given), -2.13%.
For `Fc1ccc(CN2CCC(c3noc(-c4cnccn4)n3)CC2)cc1F`, the cytotoxicity at 70.5 h is -1.05%.
Next, `Fc1ccccc1CN1CCC(c2noc(-c3ccccn3)n2)CC1`: 1.88%; `O=C(C1CCOC1)N1Cc2ccccc2OC2(CCOCC2)C1` (stereo not given): -2.81%; `Fc1cccc(CN2CCC(c3noc(-c4ccncc4)n3)CC2)c1F`: 2.58%.
With `COc1cc2cc3c(nc2cc1OC)OCCN(Cc1cccs1)C3` the figure was 28%; with `Cc1cnccc1-c1cnn(CCNC(=O)c2ccccn2)c1C1CC1`, 27.5%; with `Cc1cnccc1-c1cnn(CCNC(=O)c2cccnc2)c1C1CC1`, -5.95%.
For `Cc1cnccc1-c1cnn(CCNC(=O)c2ccncc2)c1C1CC1`, the cytotoxicity at 70.5 h came out at 17.4%.
With `Cc1cnccc1-c1cnn(CCNC(=O)C(C)(C)C)c1C1CC1` the figure was -9.87%; with `CCOC(=O)C1(Cc2ccccc2-c2ccccc2OC)CCNCC1`, 11%.
In the case of `CC(C)c1cc(C(=O)NCC2CCCN(C(C)C)C2)n(C)n1` (stereo not given), the cytotoxicity at 70.5 h was -0.374%.
Next, `Cc1cccc(CNC(Cc2ccsc2)c2nc(C)c(C)s2)n1` (stereo not given): 1.1%.
